In brackets after ≈: the same amount, converted by molar mass. Read-outs that look alike come from different tables or passages of the source. Ends that are not written are not given here. Peptide text beside a SMILES is read from it.

In one test the test system is S. mutans. Format: cell-based, Streptococcus mutans. Here is the method: (§1) In certain embodiments the MIC assays are performed as described herein in the Examples. For each organism, the media and growth conditions utilized is detailed in Table 8.
(§2) In certain embodiments the MIC assays are performed as follows: For each organism, the media and growth conditions utilized is detailed in Table 8.

The test system of a further test is T. rubrum. Format: cell-based, Trichophyton rubrum. Here is the method: as §1, §2
Another test has as its system B. subtilis. Format: cell-based, Bacillus subtilis. Here is the method:
as §1, §2

A further test relates to C. difficile. Format: cell-based, Clostridium difficile. Here is the method:
as §1, §2

In the next test the test system is C. albicans. The class given is cell-based, Candida albicans. As to the method: as §1, §2
A further test concerns S. epidermidis. The class given is cell-based. Here is the method: as §1, §2
The subject of another test is C. jeikeium. As to the kind of experiment: MIC assay, C. jeikeium. The class given is cell-based, Corynebacterium jeikium. The note with it: TSB supplemented with 1% Tween-80, 37° C., aerobic, inoculum 10^6 CFU/ml, 18-24 h or 48 h. Here is the method:
as §1, §2

In another test the test system is MRSA. Format: cell-based, Methicillin-resistant Staphylococcus aureus. As to conditions: MRSA; BHI supplemented with 2% glucose, 37° C., aerobic; inoculum 10^5 CFU/ml; 18-24 h or 48 h. As to the method: as §1, §2
In another test the test system is A. niger. Format: cell-based, Aspergillus niger. Here is the method:
as §1, §2

The test system of a further test is P. aeruginosa. The class given is cell-based, Pseudomonas aeruginosa. As to conditions: P. aeruginosa; MH, 37° C., aerobic; inoculum 10^5 CFU/ml; 18-24 h or 48 h. Here is the method:
as §1, §2

Another test deals with P. gingivalis. Format: cell-based, Porphyromonas gingivalis. As to the method: as §1, §2
In the next test the test system is A. naeslundii. The class given is cell-based, Actinomyces naeslundii. Here is the method: as §1, §2
For another test, the system named is A. baumannii. Format: cell-based, Acinetobacter baumannii. Here is the method:
as §1, §2

[1] abbreviates: T. rubrum, Potato Dextrose Agar, 25° C., aerobic, inoculum 10^5 CFU/ml, 18-24 h or 48 h.
The mark [2] stands for this setting: B. subtilis, BHI, 30° C., aerobic, inoculum 10^5 CFU/ml, 18-24 h or 48 h.

As to WSRVPGHSDTGWKVWHRW [PF-547], the MIC (commonly the lowest concentration that inhibits growth of the organism) was found to be 12.5 µM with S. mutans (S. mutans, TH supplemented with 1% sucrose, 37° C., anaerobic, inoculum 10^5 CFU/ml, 18-24 h or 48 h); 25 µM in the test on T. rubrum (setting [1]); 25 µM with B. subtilis (setting [2]).
FELVDWLETNLGKILKSKSA [PF-522] displayed an MIC in the test with C. difficile (C. difficile, BHIS, 37° C., anaerobic, inoculum 10^5 CFU/ml, 18-24 h or 48 h) of 25 µM.
`CC[C@H](C)[C@H](NC(=O)[C@H](CCCCN)NC(=O)[C@H](C)NC(=O)[C@H](Cc1ccccc1)NC(=O)[C@@H](NC(=O)[C@H](C)NC(=O)[C@H](CC(C)C)NC(=O)[C@H](CO)NC(=O)[C@@H](N)CC(C)C)[C@@H](C)O)C(=O)N[C@@H](Cc1ccccc1)C(=O)N[C@@H](CCSC)C(=O)N[C@H](C(=O)N[C@@H](CCCNC(=N)N)C(=O)N[C@@H](CO)C(=O)N[C@@H](CC(N)=O)C(=O)N[C@@H](Cc1c[nH]c2ccccc12)C(=O)N[C@@H](CO)C(=O)N[C@@H](CC(C)C)C(=O)N[C@@H](CCCCN)C(=O)N[C@@H](CCCNC(=N)N)C(=O)N[C@@H](Cc1ccccc1)C(=O)N[C@@H](CC(N)=O)C(=O)N[C@@H](CCCNC(=N)N)C(=O)N[C@@H](CC(C)C)C(=O)O)[C@@H](C)O` [PF-278] (H-LSLATFAKIFMTRSNWSLKRFNRL-OH; N-terminus and C-terminus assumed): the MIC with T. rubrum, in the test on C. albicans and against S. epidermidis was 50 µM each time.
`CC[C@H](C)[C@H](NC(=O)[C@H](CCCNC(=N)N)NC(=O)[C@@H](NC(=O)[C@H](CCCCN)NC(=O)[C@H](CCCCN)NC(=O)[C@H](CC(C)C)NC(=O)[C@H](CC(C)C)NC(=O)[C@H](CCCCN)NC(=O)[C@H](CCCNC(=N)N)NC(=O)[C@H](Cc1c[nH]cn1)NC(=O)[C@H](CCCCN)NC(=O)[C@H](CCCCN)NC(=O)[C@H](CCCCN)NC(=O)[C@H](C)NC(=O)[C@H](CCSC)NC(=O)[C@H](CCCNC(=N)N)NC(=O)[C@H](CCCCN)NC(=O)[C@H](CCCNC(=N)N)NC(=O)[C@H](CCCNC(=N)N)NC(=O)[C@H](CCCCN)NC(=O)[C@H](CCCCN)NC(=O)[C@@H](NC(=O)[C@@H](NC(=O)[C@H](CO)NC(=O)CN)C(C)C)[C@@H](C)CC)[C@@H](C)O)C(=O)N[C@@H](CCC(N)=O)C(=O)N[C@@H](CCCNC(=N)N)C(=O)N[C@@H](CCCNC(=N)N)C(=O)N[C@@H](CCCNC(=N)N)C(=O)N[C@@H](C)C(=O)NCC(=O)N[C@@H](CCCCN)C(=O)O` [PF-527] (H-GSVIKKRRKRMAKKKHRKLLKKTRIQRRRAGK-OH; N-terminus and C-terminus assumed): the MIC amounted to 6.25 µM (≈ 24.6 µg/mL) against C. jeikeium; 25 µM (≈ 98.5 µg/mL) against T. rubrum (setting [1]); 12.5 µM (≈ 49.3 µg/mL) in the test on B. subtilis; 50 µM (≈ 197 µg/mL) with MRSA; 50 µM (≈ 197 µg/mL) against A. niger (A. niger, Potato Dextrose Agar, 25° C., aerobic, inoculum 10^5 CFU/ml, 18-24 h or 48 h); 50 µM (≈ 197 µg/mL) in the test with P. aeruginosa. This compound also had an MIC against S. epidermidis (S. epidermidis, BHI supplemented with 0.25% glucose, 37° C., aerobic, inoculum 10^5 CFU/ml, 18-24 h or 48 h) of 25 µM (≈ 98.5 µg/mL).
Turning to `CC[C@H](C)[C@H](N)C(=O)N[C@@H](CC(C)C)C(=O)N[C@@H](CC(N)=O)C(=O)N[C@@H](CCCCN)C(=O)N[C@@H](CCCCN)C(=O)N1CCC[C@H]1C(=O)N[C@@H](CCCCN)C(=O)N[C@@H](CC(C)C)C(=O)N1CCC[C@H]1C(=O)N[C@@H](CC(C)C)C(=O)N[C@@H](Cc1c[nH]c2ccccc12)C(=O)N[C@@H](CCCCN)C(=O)N[C@@H](CC(C)C)C(=O)NCC(=O)N[C@@H](CCCCN)C(=O)N[C@@H](CC(N)=O)C(=O)N[C@@H](Cc1ccc(O)cc1)C(=O)N[C@@H](Cc1ccccc1)C(=O)N[C@@H](CCCNC(=N)N)C(=O)N[C@@H](CCCNC(=N)N)C(=O)N[C@@H](Cc1ccccc1)C(=O)N[C@@H](Cc1ccc(O)cc1)C(=O)N[C@H](C(=O)N[C@@H](CC(C)C)C(=O)N1CCC[C@H]1C(=O)N[C@H](C(=O)N[C@@H](Cc1ccccc1)C(=O)N[C@@H](CC(C)C)C(=O)N[C@@H](C)C(=O)O)[C@@H](C)O)C(C)C` [PF-C287] (H-ILNKKPKLPLWKLGKNYFRRFYVLPTFLA-OH; N-terminus and C-terminus assumed), the MIC turned out to be 50 µM (≈ 178 µg/mL) in the test on P. gingivalis, 50 µM (≈ 178 µg/mL) with C. albicans and 25 µM (≈ 89.1 µg/mL) against A. naeslundii.
In the case of “MPVSKKRYMLSSAYATALGICYGQVATDEKESEITAIPDLLDYLSVEEYLL [PF-C163]”, the MIC in the test on P. gingivalis, against A. naeslundii and with S. epidermidis was 50 µM in each case.
With `CC[C@H](C)[C@H](NC(=O)[C@H](CO)NC(=O)[C@H](CC(C)C)NC(=O)[C@H](CCSC)NC(=O)[C@H](CC(C)C)NC(=O)[C@H](CCC(=O)O)NC(=O)CNC(=O)[C@H](CCCCN)NC(=O)[C@H](Cc1ccc(O)cc1)NC(=O)[C@H](CCC(=O)O)NC(=O)[C@H](CCCCN)NC(=O)[C@@H](NC(=O)[C@@H](NC(=O)[C@@H](NC(=O)[C@H](CCCCN)NC(=O)[C@H](CCCNC(=N)N)NC(=O)[C@H](CC(C)C)NC(=O)[C@@H](NC(=O)[C@H](CCCCN)NC(=O)[C@H](Cc1ccccc1)NC(=O)[C@H](CCCCN)NC(=O)[C@@H](N)CO)C(C)C)[C@@H](C)CC)[C@@H](C)CC)[C@@H](C)CC)C(=O)N[C@@H](CCC(N)=O)C(=O)N[C@@H](CCCCN)C(=O)N[C@@H](CCC(N)=O)C(=O)N[C@@H](CCCNC(=N)N)C(=O)O` [PF-530] (H-SKFKVLRKIIIKEYKGELMLSIQKQR-OH; N-terminus and C-terminus assumed), the minimum inhibitory concentration (MIC) against A. baumannii was found to be 25 µM (≈ 79.4 µg/mL). This lies in the double-digit micromolar range.
As for `CC[C@H](C)[C@H](NC(=O)[C@H](CCCNC(=N)N)NC(=O)[C@@H]1CCCN1C(=O)[C@H](CCC(=O)O)NC(=O)[C@H](CC(C)C)NC(=O)[C@@H]1CCCN1C(=O)[C@H](CC(=O)O)NC(=O)[C@@H](N)CC(C)C)C(=O)N[C@@H](C)C(=O)N1CCC[C@H]1C(=O)N1CCC[C@H]1C(=O)NCC(=O)N[C@@H](CC(=O)O)C(=O)N[C@@H](CCCNC(=N)N)C(=O)N[C@@H](CO)C(=O)N[C@@H](Cc1c[nH]cn1)C(=O)N[C@@H](CCC(N)=O)C(=O)NCC(=O)N[C@@H](C)C(=O)N1CCC[C@H]1C(=O)N[C@@H](C)C(=O)N[C@@H](CS)C(=O)N[C@@H](Cc1c[nH]cn1)C(=O)N[C@@H](CCCNC(=N)N)C(=O)N[C@@H](CC(=O)O)C(=O)N1CCC[C@H]1C(=O)N[C@@H](CC(C)C)C(=O)N[C@@H](CCCNC(=N)N)C(=O)NCC(=O)N[C@@H](CCCNC(=N)N)C(=O)N[C@@H](CO)C(=O)N[C@@H](C)C(=O)N[C@@H](CCCNC(=N)N)C(=O)N[C@@H](CC(=O)O)C(=O)N[C@@H](C)C(=O)N[C@@H](CCC(=O)O)C(=O)N[C@@H](CCCNC(=N)N)C(=O)O` [PF-C019] (H-LDPLEPRIAPPGDRSHQGAPACHRDPLRGRSARDAER-OH; N-terminus and C-terminus assumed), the MIC was determined as 25 µM (≈ 102 µg/mL) in the test with S. mutans, 50 µM (≈ 204 µg/mL) against T. rubrum and 50 µM (≈ 204 µg/mL) with A. niger.
As to `CC[C@H](C)[C@H](NC(=O)[C@H](CCC(=O)O)NC(=O)[C@H](CCCCN)NC(=O)[C@@H](NC(=O)[C@H](CCCCN)NC(=O)[C@H](CCC(=O)O)NC(=O)[C@H](CC(C)C)NC(=O)[C@@H](NC(=O)[C@H](CC(=O)O)NC(=O)[C@@H](NC(=O)[C@H](CCC(N)=O)NC(=O)[C@H](CCCCN)NC(=O)[C@H](CCCCN)NC(=O)[C@H](CC(N)=O)NC(=O)[C@@H](N)CCCCN)[C@@H](C)O)[C@@H](C)CC)C(C)C)C(=O)N[C@@H](CC(C)C)C(=O)N[C@@H](CC(=O)O)C(=O)N[C@@H](CCCCN)C(=O)N[C@@H](CCCCN)C(=O)N[C@@H](CCCCN)C(=O)N[C@@H](CCCCN)C(=O)N[C@H](C(=O)N[C@@H](CCCCN)C(=O)N[C@@H](CO)C(=O)N[C@H](C(=O)NCC(=O)N[C@@H](CCC(N)=O)C(=O)N[C@@H](CCCCN)C(=O)N[C@@H](CC(C)C)C(=O)N[C@@H](Cc1ccc(O)cc1)C(=O)O)C(C)C)[C@@H](C)O` [PF-538] (H-KNKKQTDILEKVKEILDKKKKTKSVGQKLY-OH; N-terminus and C-terminus assumed), the MIC against A. baumannii and against C. difficile was 25 µM (≈ 89 µg/mL) each time.
For `CC[C@H](C)[C@H](NC(=O)CNC(=O)[C@@H](N)CCSC)C(=O)N[C@H](C(=O)N[C@@H](C)C(=O)NCC(=O)N[C@H](C(=O)N[C@H](C(=O)N[C@@H](CCCCN)C(=O)N[C@@H](Cc1ccccc1)C(=O)N[C@H](C(=O)N[C@@H](CCCCN)C(=O)NCC(=O)N[C@@H](CC(C)C)C(=O)N[C@H](C(=O)N[C@@H](CCC(=O)O)C(=O)N[C@@H](CCCCN)C(=O)N[C@@H](Cc1ccccc1)C(=O)N[C@H](C(=O)NCC(=O)N[C@@H](CCCCN)C(=O)O)[C@@H](C)O)[C@@H](C)CC)[C@@H](C)CC)[C@@H](C)CC)[C@@H](C)CC)[C@@H](C)CC` [PF-006], the MIC in the test on B. subtilis (setting [2]) was determined as 25 µM (≈ 56.9 µg/mL); in the test with A. baumannii (A. baumannii, LB, 30° C., anaerobic, inoculum 10^5 CFU/ml, 18-24 h or 48 h), 50 µM (≈ 114 µg/mL); with MRSA, 50 µM (≈ 114 µg/mL).

For the origin of these results see patent publication US20100184683A1, “ANTIBACTERIAL AND ANTIFUNGAL PEPTIDES” (C3 JIAN, INC., priority 2009, published 2010).
